| melting point [°C] | SMILES |
| --- | --- |
| 129 to 132 | Cc1ccc(Oc2ccc(-n3cnnn3)cc2)c(O)c1 |
| 104 to 106 | O=S(=O)(CCCl)CCC(F)(F)C(F)(F)C(F)(F)C(F)(F)C(F)(F)C(F)(F)F |
| 80 to 82 | CCOc1cc(C(CS(C)(=O)=O)N2C(=O)c3cccc(Cc4ccc[nH]4)c3C2=O)ccc1OC (stereo not given) |
| 120 to 130 | COc1cc2c(cc1OC)[C@@H]1CCCC[C@@H]1N=C2c1ccc(N(S(=O)(=O)c2ccc(C)cc2)S(=O)(=O)c2ccc(C)cc2)cc1 (racemic) |
| > 270 | O=C1OCC2=C1C(c1ccccc1Cl)c1c[nH]nc1N2 (stereo not given) |
| 155 to 157 | CC(C)(C)[C@H]1CC[C@@H](Nc2nnc(CCc3cccnc3)c3ccccc23)CC1 |
| 201 | CC(C)(O)C(=O)N[C@H]1CC[C@H](CCN2CCN(c3nccc4c3CCO4)CC2)CC1 |
| 127 | CCOC(=O)C1=C(N)NC(N)=C(C(=O)OCC)C1c1ccc(SC)cc1 |
| 203 | CN(C1CCC(O)CC1)S(=O)(=O)c1ccc(Nc2nccc(Nc3ccc(F)cc3)n2)cc1 (stereo not given) |
| > 280 | CC(=O)N1CCC(C2=C(C#N)C(c3cccc(C#N)c3Br)c3c[nH]nc3N2)CC1 (stereo not given) |
| 147 to 149 | COC(=O)CC(O)(c1ccccc1)c1ccc2nc(N)n(S(=O)(=O)C(C)C)c2c1 (stereo not given) |
| 231 to 233 | CC(C)(C)C(=O)CN1C(=O)C(NC(=O)Nc2cccc(C(=O)O)c2)CN(C(=O)C(C)(C)C)c2ccccc21 (stereo not given) |
| 121 to 122 | O=C1CC[C@@H](COc2cccnc2)N1 |
| 175 to 177 | COC(=O)CN(CCNC(=O)OC(C)(C)C)C(=O)Cc1cc2c(C)ccnc2[nH]c1=O |
| 95 to 97 | CSC1=C(c2cc3ccccc3s2)N2CCN=C2S1 |
| 96 to 100 | CC(=O)Nc1c(C(=O)c2cccc(C)c2)[nH]c2cc(Cl)ccc12 |
| 134 to 136 | O=C(O)CCc1cn(Cc2ccc(Cl)cc2Cl)c2ccccc12 |
| 209 | O=C(O)c1ccc(OCCCC2CCN(c3ccc(Cl)nn3)CC2)cc1 |
| 194 to 195 | O=C(O)c1[nH]c(-c2cccs2)cc1-c1ccc(F)cc1 |
| 72 to 74.5 | CC(C)(C)OC(=O)NCCCCC(N)C(=O)Nc1ccccc1 (stereo not given) |
| 204 | Cc1ccc2cccc(OCc3c(Cl)ccc(S(=O)(=O)N(C)Cc4cccc(C(=O)O)c4)c3Cl)c2n1 |
| 228 to 230 | Cc1ccc(-c2nc3ccc(C)cn3c2CC(=O)O)cc1 |

| melting point [°C] | SMILES |
| --- | --- |
| 125 to 127 | CN1C(=O)C2C3C=CC(CC3)C2(c2ccc(F)c(F)c2)C1=O (stereo not given) |
| 118 | Cc1nnc(C(F)(F)F)n1-c1ccccc1 |
| 88 to 90 | CCC(=O)N1C2CCC1CN(Cc1cc3ccccc3o1)C2 |
| 173 to 174 | CCOCc1nc2c(N)nc3cccnc3c2n1Cc1ccccc1 |
| 194 to 195 | CCc1cnc2c(NC(=O)c3c(Cl)cccc3Cl)cccc2c1C(C)=O |
| 157 to 159 | CNc1nc(-c2cccc(NC(=O)c3ccc(Cl)nc3)c2)c2cc(OC)c(OC)cc2n1 |
| 203 to 205 | CCN1CCCCC1CNS(=O)(=O)c1ccc(Nc2ccnc3cc(Cl)ccc23)cc1 (stereo not given) |
| 131 | Clc1ccc(-c2cn3cccc4c3c2CCC4)cc1 |
| 155 to 157 | CCCNC(=S)NCCC1Cc2ccc(-c3ccc(=O)[nH]n3)cc2C1 (stereo not given) |
| 304 to 307 | CC1(C)Oc2ccc(S(C)(=O)=O)cc2[C@@H](N2CCSC2=NC#N)[C@@H]1O (relative stereo) |
| 122 | COc1cc(F)c2ncc(F)cc2c1 |
| 143 to 146 | COc1ccc(C2=NNC(=O)[C@H]3CCCC[C@@H]23)cc1OC (relative stereo) |
| 174 to 176 | CS(=O)(=O)Nc1ccc(NS(C)(=O)=O)c(S)c1 |
| 255 to 256 | Cc1nc(-c2cnc3[nH]cc(C(=O)N[C@@H](C(=O)N4CC(C#N)C4)C4CC4)c3n2)cn1CC(F)(F)F |
| 161 to 162 | Fc1cccc2[nH]cc(C3CCC4(CC3)OCCO4)c12 |
| 177 to 184 | Cc1c(N2CC(F)C(C3(N)CCC3)C2)c(F)c(N)c2c(=O)c(C(=O)O)cn(C3CC3F)c12 (stereo not given) |
| 91 to 93 | CC(C)(C)OC(=O)c1ccc2[nH]ccc2c1 |
| 209 to 210 | Oc1ccc2c(c1)Oc1cc(O)ccc1C2(C(F)(F)F)C(F)(F)F |
| 175 to 178 | CS(=O)(=O)c1cc(S(N)(=O)=O)sc1CO |
| 106 to 108 | CC(C)(C)OC(=O)c1ccc(O)c(Br)c1 |
| 270 to 271 | CC(CN1CCN(CCc2ccc(C(=O)O)cc2)CC1)Oc1ccc(C(=O)O)cc1 (stereo not given) |
| 209 to 211 | O=c1[nH]nc2ccc(OCCCN3CCC(OC(c4ccccc4)c4ccccc4)CC3)nn12 |

| melting point [°C] | SMILES |
| --- | --- |
| 203 to 204 | CC(O)CCNC(=O)C1CCC(Nc2nccc(-n3ncc4ccccc43)n2)CC1 (stereo not given) |
| 137 to 142 | Cn1c(CC#N)ccc1C(=O)c1ccc(N)cc1 |
| 117 to 119 | CN(C)C(=O)C(C)(C)n1cc(Cl)c(-c2ccccc2)n1 |
| 135 to 136 | CCOC(=O)c1cc(=O)c2c(OCC(O)COc3ccc(OC)cc3)cccc2o1 (stereo not given) |
| 219 to 221 | Cn1cc(C2=C(c3cn(CCCN=C=S)c4ccccc34)C(=O)NC2=O)c2ccccc21 |
| 46 to 47 | O=[N+]([O-])c1cc(Cl)c2c(c1)C(F)(C(F)(F)F)C(F)(F)O2 (stereo not given) |
| 167 | CC(C)(COc1c(-c2ccccc2)c(=O)oc2ccccc12)CN1CCOCC1 |
| 152 | OCCC(O)OCn1cc(Br)c2c(Cl)ncnc21 (stereo not given) |
| 106 to 107 | CCc1noc(CN2C(=O)c3ccccc3C2=O)n1 |
| 214 to 215 | N#CCCNC(=O)c1cccc(-c2cccn3nc(Nc4cccc(C(F)(F)F)c4)nc23)c1 |
| 159 to 160 | COc1ccc(N(CCCC(=O)O)C(=O)C(C)N(C(=O)c2ccc(Cl)cc2Cl)c2ccc(OC)cc2)cc1 (stereo not given) |
| 90.5 to 92 | NCCCCCCCCOc1cccc2ccccc12 |
| 239 to 245 | Cc1ccc2c(N)c3c(nc2c1)CCSC3 |
| 117 to 119 | OCC1(CO)COC2(CCCCC2)N1 |
| 82 to 84 | NCCCCn1ccnc1-c1ccccc1 |
| 110 to 112 | Cc1ccc(Cc2cnc(CCCSCc3cc(CN(C)C)ccn3)[nH]c2=O)cn1 |
| 249 to 251 | COC(=O)c1ccc2c(c1)C(=O)c1c-2n(CCCNS(=O)(=O)c2ccccc2)c(=O)c2cc(OC)c(OC)cc12 |
| 163 to 165 | Cc1cccc(C)c1C(=O)Oc1cc([N+](=O)[O-])cc([N+](=O)[O-])c1O |
| 97 to 99 | O=S(=O)(Nc1cc(O)ccc1Oc1ccccc1)C(F)(F)F |
| 119 to 120 | CCCC(CCC)Nc1nc(C)nc(Oc2c(Br)cc(C(C)(C)O)cc2OC)c1[N+](=O)[O-] |
| 78 to 79 | CN(C[C@H](O)[C@@H](O)[C@H](O)[C@H](O)CO)C(=O)CCCO |
| 188 to 190 | CCOC(=O)CNC(=O)C[C@H]1O[C@@H](c2ccccc2)c2cc(Cl)ccc2N(C(C)C)C1=O (relative stereo) |

| SMILES | melting point [°C] |
| --- | --- |
| COc1ccc(Nc2ccccc2)c2c1c(CCN(C)C)cn2C | 158 to 160 |
| NC(P(=O)(O)O)P(=O)(O)O | 255 to 265 |
| CC1(S(=O)(=O)N2C[C@@H](Cl)C[C@@H]2CCl)C=CC=CC1 (stereo not given in full) | 103 to 105 |
| COCCN(C)c1c(S(=O)(=O)C(F)(F)F)c(C#N)nn1-c1c(Cl)cc(C(F)(F)F)cc1Cl | 75 |

Source: a melting point compilation (Tetko et al.; mined from patent text by program, amines drawn as free bases though some values may be those of a salt)
